Source: patent publication US20100286145A1, “ISOPHTHALAMIDE DERIVATIVES INHIBITING BETA-SECRETASE ACTIVITY” (CoMentis, Inc., priority 2007, published 2010)

How the values were obtained:
memapsin 2 = memapsin 2 (Homo sapiens, UniProt P56817); test: Inhibition of memapsin 2 beta-secretase activity (fluorogenic substrate FS-2); assay type: biochemical; details: memapsin 2, pH 4, 37° C., fluorogenic substrate FS-2; read-out: M2Ki
Procedure, shortened: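 Memapsin 2 pre-incubated 20 min with compound at pH 4, 37° C, then FS-2 substrate (MCA-SEVNLDAEFK-DNP, APP Swedish cleavage site) added. Rate of fluorescence increase compared with uninhibited controls, fitted to a tight-binding inhibition model.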

[1] = tested on: Aβ production in Chinese hamster ovary cells that over-express human APP695 with the London and Swedish mutations; test: Cellular Aβ IC50 determination (Aβ40 sandwich ELISA); assay type: cell-based; details: Cricetulus griseus; cellular Aβ production; read-out: IC50
Procedure, shortened: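 CHO cells overexpressing human APP695 with London and Swedish mutations, seeded at 10% confluency, treated with compounds up to about 4 μM final (0.4% DMSO). Secreted Aβ40 measured by sandwich ELISA relative to control and fitted to a 4-parameter IC50 model.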

memapsin 2, sequence (P56817 46-501): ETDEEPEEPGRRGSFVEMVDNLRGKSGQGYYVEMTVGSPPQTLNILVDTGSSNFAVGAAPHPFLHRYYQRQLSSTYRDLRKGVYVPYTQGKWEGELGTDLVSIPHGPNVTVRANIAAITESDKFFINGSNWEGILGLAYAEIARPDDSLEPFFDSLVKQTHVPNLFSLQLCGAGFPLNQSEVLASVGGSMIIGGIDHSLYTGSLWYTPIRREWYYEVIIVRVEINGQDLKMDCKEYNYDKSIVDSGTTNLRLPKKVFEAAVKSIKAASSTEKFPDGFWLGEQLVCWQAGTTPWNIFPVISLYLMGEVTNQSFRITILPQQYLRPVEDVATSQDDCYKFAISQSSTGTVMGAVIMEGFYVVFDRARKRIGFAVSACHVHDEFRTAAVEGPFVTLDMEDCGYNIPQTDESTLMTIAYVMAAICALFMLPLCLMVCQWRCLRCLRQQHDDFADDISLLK

Compound	Ki (memapsin 2) [µM]	IC50 [1] [µM]
COc1cccc([C@H](C)NC[C@@H](O)[C@H](Cc2ccccc2)NC(=O)c2cc(C(=O)N(C)Cc3nc(C)cs3)cc(N(C)C)c2)c1 [Compound 260, 5-(dimethylamino)-N1-((2S,3R)-3-hydroxy-4-((S)-1-(3-methoxyphenyl)ethylamino)-1-phenylbutan-2-yl)-N3-methyl-N3-((4-methylthiazol-2-yl)methyl)isophthalamide]	0.301 to 0.5	< 1
Cc1csc(CN(C)C(=O)c2cccc(C(=O)N[C@@H](Cc3ccccc3)[C@H](O)CNCc3cc(Cl)ccc3F)c2)n1 [Compound 261, N1-((2S,3R)-4-(5-chloro-2-fluorobenzylamino)-3-hydroxy-1-phenylbutan-2-yl)-N3-methyl-N3-((4-methylthiazol-2-yl)methyl)isophthalamide]	< 0.3	< 1
COc1cccc(CNC[C@@H](O)[C@H](Cc2ccccc2)NC(=O)c2cc(C(=O)N(C)Cc3nc(C)cs3)cc(-n3ccnc3)c2)c1 [Compound 262, N1-((2S,3R)-3-hydroxy-4-(3-methoxybenzylamino)-1-phenylbutan-2-yl)-5-(1H-imidazol-1-yl)-N3-methyl-N3-((4-methylthiazol-2-yl)methyl)isophthalamide]	< 0.3	< 1
Cc1csc(CN(C)C(=O)c2cc(C(=O)N[C@@H](Cc3ccccc3)[C@H](O)CNCc3cncc(C(C)C)c3)cc(-c3ncc[nH]3)c2)n1 [Compound 263, N1-((2S,3R)-3-hydroxy-4-((5-isopropylpyridin-3-yl)methylamino)-1-phenylbutan-2-yl)-5-(1H-imidazol-2-yl)-N3-methyl-N3-((4-methylthiazol-2-yl)methyl)isophthalamide]	< 0.3	< 1
CC(=O)c1cncc(CNC[C@@H](O)[C@H](Cc2ccccc2)NC(=O)c2cccc(C(=O)N(C)Cc3nc(C)cs3)c2)c1 [Compound 264, N1-((2S,3R)-4-((5-acetylpyridin-3-yl)methylamino)-3-hydroxy-1-phenylbutan-2-yl)-N3-methyl-N3-((4-methylthiazol-2-yl)methyl)isophthalamide]	< 0.3	< 1
Cc1csc(CN(C)C(=O)c2cccc(C(=O)N[C@@H](Cc3ccccc3)[C@H](O)CNCc3cc(Br)cc(C(F)(F)F)c3)c2)n1 [Compound 265, N1-((2S,3R)-4-(3-bromo-5-(trifluoromethyl)benzylamino)-3-hydroxy-1-phenylbutan-2-yl)-N3-methyl-N3-((4-methylthiazol-2-yl)methyl)isophthalamide]	< 0.3	< 1
Cc1csc(CN(C)C(=O)c2cccc(C(=O)N[C@@H](Cc3ccccc3)[C@H](O)CNCc3cc(C#N)cc(C(F)(F)F)c3)c2)n1 [Compound 266, N1-((2S,3R)-4-(3-cyano-5-(trifluoromethyl)benzylamino)-3-hydroxy-1-phenylbutan-2-yl)-N3-methyl-N3-((4-methylthiazol-2-yl)methyl)isophthalamide]	< 0.3	< 1
Cc1csc(CN(C)C(=O)c2cccc(C(=O)N[C@@H](Cc3ccccc3)[C@H](O)CNCc3cccc(-c4ccccc4)c3)c2)n1 [Compound 267, N1-((2S,3R)-4-(biphenyl-3-ylmethylamino)-3-hydroxy-1-phenylbutan-2-yl)-N3-methyl-N3-((4-methylthiazol-2-yl)methyl)isophthalamide]	< 0.3	< 1
Cc1csc(CN(C)C(=O)c2cc(C(=O)N[C@@H](Cc3ccccc3)[C@H](O)CNCc3cccc(C(C)(C)C)c3)cc(N(C)C)c2)n1 [Compound 268, N1-((2S,3R)-4-(3-tert-butylbenzylamino)-3-hydroxy-1-phenylbutan-2-yl)-5-(dimethylamino)-N3-methyl-N3-((4-methylthiazol-2-yl)methyl)isophthalamide]	< 0.3	< 1
C=C(C)c1cc(CNC[C@@H](O)[C@H](Cc2ccccc2)NC(=O)c2cccc(C(=O)N(C)Cc3nc(C)cs3)c2)c[n+]([O-])c1 [Compound 269, 3-(((2R,3S)-2-hydroxy-3-(3-(methyl((4-methylthiazol-2-yl)methyl)carbamoyl)benzamido)-4-phenylbutylamino)methyl)-5-(prop-1-en-2-yl)pyridine 1-oxide]	< 0.3	< 1
Cc1csc(CN(C)C(=O)c2cc(C(=O)N[C@@H](Cc3ccccc3)[C@H](O)CNCc3cncc(C(C)(C)F)c3)cc(-c3ccoc3)c2)n1 [Compound 270, N1-((2S,3R)-4-((5-(2-fluoropropan-2-yl)pyridin-3-yl)methylamino)-3-hydroxy-1-phenylbutan-2-yl)-5-(furan-3-yl)-N3-methyl-N3-((4-methylthiazol-2-yl)methyl)isophthalamide]	< 0.3	< 1
Cc1csc(CN(C)C(=O)c2cc(C(=O)N[C@@H](Cc3ccccc3)[C@H](O)CNCc3cncc(C(C)C)c3)cc(-c3nccn3C)c2)n1 [Compound 271, N1-((2S,3R)-3-hydroxy-4-((5-isopropylpyridin-3-yl)methylamino)-1-phenylbutan-2-yl)-N3-methyl-5-(1-methyl-1H-imidazol-2-yl)-N3-((4-methylthiazol-2-yl)methyl)isophthalamide]	< 0.3	< 1
Cc1csc(CN(C)C(=O)c2cc(C(=O)N[C@@H](Cc3ccccc3)[C@H](O)CNCc3cncc(C(C)C)c3)cc(-c3cccc(Cl)c3)c2)n1 [Compound 272, 3′-chloro-N3-((2S,3R)-3-hydroxy-4-((5-isopropylpyridin-3-yl)methylamino)-1-phenylbutan-2-yl)-N5-methyl-N5-((4-methylthiazol-2-yl)methyl)biphenyl-3,5-dicarboxamide]	< 0.3	< 1
Cc1csc(CN(C)C(=O)c2cc(C(=O)N[C@@H](Cc3ccccc3)[C@H](O)CNCc3cccc(C(F)(F)F)c3)cc(C(C)C)c2)n1 [Compound 273, N1-((2S,3R)-3-hydroxy-1-phenyl-4-(3-(trifluoromethyl)benzylamino)butan-2-yl)-5-isopropyl-N3-methyl-N3-((4-methylthiazol-2-yl)methyl)isophthalamide]	< 0.3	< 1
Cc1csc(CN(C)C(=O)c2cc(C(=O)N[C@@H](Cc3ccccc3)[C@H](O)CNCc3cncc(C(C)C)c3)cc(C(C)C)c2)n1 [Compound 274, N1-((2S,3R)-3-hydroxy-4-((5-isopropylpyridin-3-yl)methylamino)-1-phenylbutan-2-yl)-5-isopropyl-N3-methyl-N3-((4-methylthiazol-2-yl)methyl)isophthalamide]	< 0.3	< 1
CC(=O)Nc1cc(CNC[C@@H](O)[C@H](Cc2ccccc2)NC(=O)c2cccc(C(=O)N(C)Cc3nc(C)cs3)c2)cc(C(F)(F)F)c1 [Compound 276, N1-((2S,3R)-4-(3-acetamido-5-(trifluoromethyl)benzylamino)-3-hydroxy-1-phenylbutan-2-yl)-N3-methyl-N3-((4-methylthiazol-2-yl)methyl)isophthalamide]	< 0.3	< 1
Cc1csc(CN(C)C(=O)c2cc(C(=O)N[C@@H](Cc3ccccc3)[C@H](O)CNCc3cncc(C(C)(C)F)c3)cc(C(C)C)c2)n1 [Compound 277, N1-((2S,3R)-4-((5-(2-fluoropropan-2-yl)pyridin-3-yl)methylamino)-3-hydroxy-1-phenylbutan-2-yl)-5-isopropyl-N3-methyl-N3-((4-methylthiazol-2-yl)methyl)isophthalamide]	< 0.3	< 1
CC(C)c1cncc(CNC[C@@H](O)[C@H](Cc2ccccc2)NC(=O)c2cccc(C(=O)N(C)Cc3nc(CF)cs3)c2)c1 [Compound 278, N1-((4-(fluoromethyl)thiazol-2-yl)methyl)-N3-((2S,3R)-3-hydroxy-4-((5-isopropylpyridin-3-yl)methylamino)-1-phenylbutan-2-yl)-N1-methylisophthalamide]	< 0.3	< 1
CO/C=C(/C)c1cncc(CNC[C@@H](O)[C@H](Cc2ccccc2)NC(=O)c2cccc(C(=O)N(C)Cc3nc(C)cs3)c2)c1 [Compound 279, N1-((2S,3R)-3-hydroxy-4-((5-((Z)-1-methoxyprop-1-en-2-yl)pyridin-3-yl)methylamino)-1-phenylbutan-2-yl)-N3-methyl-N3-((4-methylthiazol-2-yl)methyl)isophthalamide]	0.301 to 0.5	< 1
CN(Cc1nc(CF)cs1)C(=O)c1cccc(C(=O)N[C@@H](Cc2ccccc2)[C@H](O)CNCc2cncc(C(F)(F)F)c2)c1 [Compound 280, N1-((4-(fluoromethyl)thiazol-2-yl)methyl)-N3-((2S,3R)-3-hydroxy-1-phenyl-4-((5-(trifluoromethyl)pyridin-3-yl)methylamino)butan-2-yl)-N1-methylisophthalamide]	< 0.3	< 1
Cc1csc(CN(C)C(=O)c2cc(C(=O)N[C@@H](Cc3ccccc3)[C@H](O)CNCc3cncc(C(C)(C)F)c3)cc(C(F)F)c2)n1 [Compound 293, 5-(difluoromethyl)-N1-((2S,3R)-4-((5-(2-fluoropropan-2-yl)pyridin-3-yl)methylamino)-3-hydroxy-1-phenylbutan-2-yl)-N3-methyl-N3-((4-methylthiazol-2-yl)methyl)isophthalamide]	< 0.3	< 1
COC1(OC)CCN(c2cc(C(=O)N[C@@H](Cc3ccccc3)[C@H](O)CNCc3cncc(C(C)C)c3)cc(C(=O)N(C)Cc3nc(C)cs3)c2)C1 [Compound 299, 5-(3,3-dimethoxypyrrolidin-1-yl)-N1-((2S,3R)-3-hydroxy-4-((5-isopropylpyridin-3-yl)methylamino)-1-phenylbutan-2-yl)-N3-methyl-N3-((4-methylthiazol-2-yl)methyl)isophthalamide]	< 0.3	< 1
